# Reference: patent publication US20260256792A1, “TREATMENT OF CHRONIC SPONTANEOUS URTICARIA BY ADMINISTERING (R)-2-[3-[4-AMINO-3-(2-FLUORO-4-PHENOXY-PHENYL)PYRAZOLO[3,4-D]PYRIMIDIN-1-YL]PIPERIDINE-1-CARBONYL]-4-METHYL-4-[4-(OXETAN-3-YL)PIPERAZIN-1-YL]PENT-2-ENENITRILE” (priority 2023, published 2026)
# Tested on: moderate-to-severe chronic spontaneous urticaria (CSU)
# Assay: Phase 2 CSU study: itch severity score over 7 days (ISS7)
# Type: in vivo, human
# Text: The study comprises a 12 week, randomized, double-blind, placebo-controlled, multi-center, dose-ranging efficacy and safety phase, followed by a 40 week open label extension (OLE) phase (see FIG. 1). The study consists of three phases and an optional OLE phase. […] Clinically, CSU is characterized by the spontaneous and recurrent appearance of pruritic hives. The proposed primary endpoints were the UAS7 at Week 12 in EU and EU reference countries and the ISS7 in the US. Regardless of where a participant was from, all assessments were the same. The UAS7 score is a composite score containing both the HSS7 and the ISS7. This allowed a global assessment of the two key components of urticaria: hives and itch. […] The UAS is a validated PRO measure. […] The daily UAS scores range from 0 to 6 point/day. […] Patients were to complete the UAS using the e-diary. […] The following secondary endpoints were to be analyzed using the same approach as for the primary endpoint: • Change from baseline in UAS7 at Week 4 • Change from baseline in UAS7 at Week 12 (for US and US reference countries) • Change from baseline in ISS7 at Week 12 (except US and US reference countries) • Change from baseline in HSS7 at Week 12
# [1] = Week 7, 400 mg TID, Omalizumab-Naïve
# [2] = Week 7, 400 mg TID, Prior Omalizumab Use
# [3] = Week 8, 400 mg BID, Omalizumab-Naïve
# [4] = Week 8, 400 mg BID, Prior Omalizumab Use
# [5] = Week 8, 400 mg QPM, Omalizumab-Naïve
# [6] = Week 8, 400 mg QPM, Prior Omalizumab Use
# [7] = Week 8, 400 mg TID, Omalizumab-Naïve
# [8] = Week 8, 400 mg TID, Prior Omalizumab Use
# [9] = Week 9, 400 mg BID, Omalizumab-Naïve
# [10] = Week 9, 400 mg BID, Prior Omalizumab Use
# [11] = Week 9, 400 mg QPM, Omalizumab-Naïve
# [12] = Week 9, 400 mg QPM, Prior Omalizumab Use
# [13] = Week 9, 400 mg TID, Omalizumab-Naïve
# [14] = Week 9, 400 mg TID, Prior Omalizumab Use
# [15] = Week 10, 400 mg BID, Omalizumab-Naïve
# [16] = Week 10, 400 mg BID, Prior Omalizumab Use
smiles,measurement,setting,value
"CC(C)(C=C(C#N)C(=O)N1CCC[C@@H](n2nc(-c3ccc(Oc4ccccc4)cc3F)c3c(N)ncnc32)C1)N1CCN(C2COC2)CC1 [rilzabrutinib, (R)-2-[3-[4-amino-3-(2-fluoro-4-phenoxy-phenyl)pyrazolo[3,4-d]pyrimidin-1-yl]piperidine-1-carbonyl]-4-methyl-4-[4-(oxetan-3-yl)piperazin-1-yl]pent-2-enenitrile]",ISS7 Change from baseline Mean (SD),[1],−8.96 (5.57)
same,ISS7 Change from baseline Median,[1],−9.00
same,ISS7 Mean (SD),[1],7.14 (5.35)
same,ISS7 Median,[1],8.00
same,ISS7 Percent change from baseline Mean (SD),[1],−55.24 (31.64) %
same,ISS7 Percent change from baseline Median,[1],−52.66%
same,ISS7 Change from baseline Mean (SD),[2],−9.94 (7.89)
same,ISS7 Change from baseline Median,[2],−7.33
same,ISS7 Mean (SD),[2],7.06 (6.25)
same,ISS7 Median,[2],6.00
same,ISS7 Percent change from baseline Mean (SD),[2],−54.94 (32.91) %
same,ISS7 Percent change from baseline Median,[2],−48.16%
same,ISS7 Change from baseline Mean (SD),[3],−8.15 (6.15)
same,ISS7 Change from baseline Median,[3],−9.00
same,ISS7 Mean (SD),[3],7.33 (6.55)
same,ISS7 Median,[3],6.00
same,ISS7 Percent change from baseline Mean (SD),[3],−53.11 (38.61) %
same,ISS7 Percent change from baseline Median,[3],−60.00%
same,ISS7 Change from baseline Mean (SD),[4],−11.00 (9.49)
same,ISS7 Change from baseline Median,[4],−14.00
same,ISS7 Mean (SD),[4],6.20 (8.32)
same,ISS7 Median,[4],1.00
same,ISS7 Percent change from baseline Mean (SD),[4],−61.52 (49.97) %
same,ISS7 Percent change from baseline Median,[4],−93.33%
same,ISS7 Change from baseline Mean (SD),[5],−6.03 (4.99)
same,ISS7 Change from baseline Median,[5],−6.00
same,ISS7 Mean (SD),[5],10.72 (5.26)
same,ISS7 Percent change from baseline Mean (SD),[5],−36.14 (28.79) %
same,ISS7 Percent change from baseline Median,[5],−33.68%
same,ISS7 Change from baseline Mean (SD),[6],−14.00 (NC)
same,ISS7 Change from baseline Median,[6],−14.00
same,ISS7 Mean (SD),[6],7.00 (NC)
same,ISS7 Median,[6],7.00
same,ISS7 Change from baseline Mean (SD),[7],−9.01 (5.43)
same,ISS7 Change from baseline Median,[7],−9.33
same,ISS7 Mean (SD),[7],7.24 (5.51)
same,ISS7 Median,[7],7.00
same,ISS7 Percent change from baseline Mean (SD),[7],−55.59 (31.84) %
same,ISS7 Percent change from baseline Median,[7],−53.49%
same,ISS7 Change from baseline Mean (SD),[8],−12.67 (6.71)
same,ISS7 Change from baseline Median,[8],−14.00
same,ISS7 Mean (SD),[8],4.33 (6.83)
same,ISS7 Median,[8],1.50
same,ISS7 Percent change from baseline Mean (SD),[8],−77.10 (31.49) %
same,ISS7 Percent change from baseline Median,[8],−86.61%
same,ISS7 Change from baseline Mean (SD),[9],−7.57 (6.14)
same,ISS7 Change from baseline Median,[9],−8.00
same,ISS7 Mean (SD),[9],7.63 (7.11)
same,ISS7 Median,[9],7.00
same,ISS7 Percent change from baseline Mean (SD),[9],−51.57 (40.77) %
same,ISS7 Percent change from baseline Median,[9],−53.33%
same,ISS7 Change from baseline Mean (SD),[10],−10.83 (9.53)
same,ISS7 Change from baseline Median,[10],−15.00
same,ISS7 Mean (SD),[10],6.37 (8.47)
same,ISS7 Median,[10],1.00
same,ISS7 Percent change from baseline Mean (SD),[10],−60.71 (51.74) %
same,ISS7 Percent change from baseline Median,[10],−95.24%
same,ISS7 Change from baseline Mean (SD),[11],−6.39 (5.27)
same,ISS7 Change from baseline Median,[11],−5.42
same,ISS7 Percent change from baseline Mean (SD),[11],−37.00 (28.06) %
same,ISS7 Percent change from baseline Median,[11],−33.33%
same,ISS7 Change from baseline Mean (SD),[12],11.00 (NC)
same,ISS7 Change from baseline Median,[12],−11.00
same,ISS7 Mean (SD),[12],10.00 (NC)
same,ISS7 Percent change from baseline Mean (SD),[12],−52.38 (NC) %
same,ISS7 Percent change from baseline Median,[12],−52.38%
same,ISS7 Change from baseline Mean (SD),[13],−9.70 (5.57)
same,ISS7 Change from baseline Median,[13],−10.00
same,ISS7 Mean (SD),[13],6.68 (5.31)
same,ISS7 Median,[13],7.00
same,ISS7 Percent change from baseline Mean (SD),[13],−58.56 (30.66) %
same,ISS7 Percent change from baseline Median,[13],−65.00%
same,ISS7 Change from baseline Mean (SD),[14],−12.36 (6.72)
same,ISS7 Change from baseline Median,[14],−13.92
same,ISS7 Mean (SD),[14],4.64 (6.72)
same,ISS7 Median,[14],2.00
same,ISS7 Percent change from baseline Mean (SD),[14],−74.49 (30.89) %
same,ISS7 Percent change from baseline Median,[14],−83.01%
same,ISS7 Change from baseline Mean (SD),[15],−7.07 (6.58)
same,ISS7 Change from baseline Median,[15],−7.58
same,ISS7 Mean (SD),[15],8.17 (7.29)
same,ISS7 Median,[15],7.00
same,ISS7 Percent change from baseline Mean (SD),[15],−47.10 (43.27) %
same,ISS7 Percent change from baseline Median,[15],−48.10%
same,ISS7 Change from baseline Mean (SD),[16],−9.80 (9.55)
same,ISS7 Change from baseline Median,[16],−11.00
same,ISS7 Mean (SD),[16],7.40 (8.11)
same,ISS7 Median,[16],4.00
same,ISS7 Percent change from baseline Mean (SD),[16],−53.71 (50.05) %
same,ISS7 Percent change from baseline Median,[16],−73.33%
same,ISS7 Change from baseline Mean (SD),"Week 10, 400 mg QPM, Omalizumab-Naïve",−6.43 (5.26)
